{"source": "ChEMBL document CHEMBL4837257", "about": "“Discovery of the Oxadiazine FRM-024: A Potent CNS-Penetrant Gamma Secretase Modulator” (J Med Chem, 2021)", "key": {"[1]": {"assay": "Toxicity in guinea pig assessed as reduction in heart flow rate by Langendorff test", "type": "tissue-based, Cavia porcellus", "settings": "in vivo; call rule not given here"}, "[2]": {"test_system": "Rattus norvegicus", "assay": "In vivo modulation of gamma secretase in rat assessed as reduction in Abeta42 levels in brain at 30 mg/kg, po measured at 16 hrs by ELISA relative to control", "type": "functional", "design": "scale not given: the % may be the effect or the level left"}, "[3]": {"target": "Cytochrome P450 2C19 (Homo sapiens, UniProt P33261)", "sequence (P33261 whole entry)": "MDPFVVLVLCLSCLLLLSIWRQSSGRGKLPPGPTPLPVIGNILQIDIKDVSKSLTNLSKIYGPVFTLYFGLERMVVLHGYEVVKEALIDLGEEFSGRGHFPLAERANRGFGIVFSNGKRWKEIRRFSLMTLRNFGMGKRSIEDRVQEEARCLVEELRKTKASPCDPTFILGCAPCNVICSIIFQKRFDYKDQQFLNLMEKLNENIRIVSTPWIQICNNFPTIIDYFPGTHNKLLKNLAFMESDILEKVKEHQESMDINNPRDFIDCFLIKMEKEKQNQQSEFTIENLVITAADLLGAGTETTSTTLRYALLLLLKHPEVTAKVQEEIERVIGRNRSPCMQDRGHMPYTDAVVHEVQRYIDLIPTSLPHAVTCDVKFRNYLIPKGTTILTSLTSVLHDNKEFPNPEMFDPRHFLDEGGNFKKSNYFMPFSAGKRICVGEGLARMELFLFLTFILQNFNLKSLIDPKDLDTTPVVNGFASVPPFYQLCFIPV", "assay": "Inhibition of CYP2C19 (unknown origin)", "type": "ADME"}, "[4]": {"assay": "Cmax in dog at 10 mg/kg, po", "type": "ADME, organism-based, Canis lupus familiaris", "design": "route oral, dose 10 mg/kg", "settings": "in vivo"}, "[5]": {"target": "T1, Cytochrome P450 3A4 (Homo sapiens, UniProt P08684)", "T1 sequence (P08684 whole entry)": "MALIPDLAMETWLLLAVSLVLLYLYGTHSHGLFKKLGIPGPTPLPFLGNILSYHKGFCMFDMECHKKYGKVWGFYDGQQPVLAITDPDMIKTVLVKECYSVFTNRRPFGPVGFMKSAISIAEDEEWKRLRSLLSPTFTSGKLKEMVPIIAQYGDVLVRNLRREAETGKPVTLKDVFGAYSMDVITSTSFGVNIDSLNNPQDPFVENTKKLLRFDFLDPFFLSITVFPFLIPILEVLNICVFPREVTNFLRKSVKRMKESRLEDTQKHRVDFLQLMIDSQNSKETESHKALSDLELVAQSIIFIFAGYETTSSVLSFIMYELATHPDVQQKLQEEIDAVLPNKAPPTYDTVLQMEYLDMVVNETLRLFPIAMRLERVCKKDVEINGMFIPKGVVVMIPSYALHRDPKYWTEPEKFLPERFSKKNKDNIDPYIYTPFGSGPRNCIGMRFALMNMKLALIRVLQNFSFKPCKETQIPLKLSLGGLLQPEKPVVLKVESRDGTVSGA", "assay": "Inhibition of CYP3A4 (unknown origin)", "type": "ADME"}, "[6]": {"assay": "Apparent permeability across apical to basolateral side in human Caco2 cells", "type": "ADME, cell-based", "settings": "Caco-2"}, "[7]": {"target": "5-hydroxytryptamine receptor 2B (Homo sapiens) (UniProt P41595)", "sequence (P41595 whole entry)": "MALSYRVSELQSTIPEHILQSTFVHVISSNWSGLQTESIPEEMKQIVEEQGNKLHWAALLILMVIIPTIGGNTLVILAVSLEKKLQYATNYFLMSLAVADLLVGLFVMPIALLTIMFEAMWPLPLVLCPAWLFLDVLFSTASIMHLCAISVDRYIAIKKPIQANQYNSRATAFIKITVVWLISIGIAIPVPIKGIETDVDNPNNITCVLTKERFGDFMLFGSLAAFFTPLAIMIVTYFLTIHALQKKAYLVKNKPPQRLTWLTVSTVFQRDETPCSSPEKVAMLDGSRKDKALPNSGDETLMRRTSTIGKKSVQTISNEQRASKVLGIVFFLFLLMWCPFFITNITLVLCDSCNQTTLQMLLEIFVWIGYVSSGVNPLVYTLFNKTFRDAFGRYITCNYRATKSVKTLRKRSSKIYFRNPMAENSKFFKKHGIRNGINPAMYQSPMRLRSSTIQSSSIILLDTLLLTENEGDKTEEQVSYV", "assay": "Inhibition of serotonin 2B receptor (unknown origin) at 10 uM relative to control"}, "[8]": {"assay": "Bioavailability in rat at 1 mg/kg, iv", "type": "ADME, organism-based", "settings": "in vivo"}, "[9]": {"target": "T2, Cytochrome P450 1A2 (Homo sapiens, UniProt P05177)", "T2 sequence (P05177 whole entry)": "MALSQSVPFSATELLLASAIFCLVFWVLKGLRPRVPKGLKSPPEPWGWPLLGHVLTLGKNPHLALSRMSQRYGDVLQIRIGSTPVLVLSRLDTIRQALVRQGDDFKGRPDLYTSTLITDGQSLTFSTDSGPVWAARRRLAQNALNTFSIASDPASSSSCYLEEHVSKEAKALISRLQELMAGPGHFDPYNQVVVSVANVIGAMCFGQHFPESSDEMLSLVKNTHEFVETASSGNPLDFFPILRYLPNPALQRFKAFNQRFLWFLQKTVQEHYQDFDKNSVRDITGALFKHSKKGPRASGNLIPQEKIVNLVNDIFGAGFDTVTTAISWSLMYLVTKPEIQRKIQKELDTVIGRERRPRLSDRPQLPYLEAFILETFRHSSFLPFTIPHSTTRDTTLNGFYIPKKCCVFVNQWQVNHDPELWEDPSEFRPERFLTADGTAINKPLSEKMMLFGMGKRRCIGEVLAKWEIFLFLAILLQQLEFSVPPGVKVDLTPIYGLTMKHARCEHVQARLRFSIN", "assay": "Inhibition of CYP1A2 in human hepatocytes upto 50 uM incubated for 72 hrs", "type": "ADME, cell-based, Hepatocyte"}, "[10]": {"assay": "In vivo modulation of gamma secretase in nonhuman primate assessed as reduction in Abeta42 levels in CSF by measuring AUC(0 to 48 hrs) at 30 mg/kg, po by ELISA", "type": "functional, Primates, Cerebrospinal fluid", "design": "scale not given: the % may be the effect or the level left"}, "[11]": {"test_system": "Rattus norvegicus", "assay": "In vivo modulation of gamma secretase in rat assessed as reduction in Abeta42 levels in CSF at 30 mg/kg, po measured after 6 hrs by ELISA relative to control", "type": "functional, Cerebrospinal fluid", "design": "scale not given: the % may be the effect or the level left"}, "[12]": {"assay": "Drug metabolism in human hepatocytes assessed as mono and di-oxidative metabolites formation after 4 hrs", "type": "ADME, cell-based, Hepatocyte"}, "[13]": {"assay": "AUClast in rat at 3 mg/kg, po", "type": "ADME, organism-based", "design": "time 0 - last, route oral, dose 3 mg/kg", "settings": "in vivo"}, "[14]": {"assay": "Genotoxicity in Salmonella typhimurium by mini-Ames test", "type": "toxicity", "settings": "salmonella enterica subsp. enterica serovar typhimurium"}, "[15]": {"test_system": "Rattus norvegicus", "assay": "In vivo modulation of gamma secretase in rat assessed as reduction in Abeta40 levels in brain by measuring AUC(0 to 24 hrs) at 30 mg/kg, po by ELISA", "type": "functional", "design": "scale not given: the % may be the effect or the level left"}, "[16]": {"target": "Cytochrome P450 2C9 (Homo sapiens, UniProt P11712)", "sequence (P11712 whole entry)": "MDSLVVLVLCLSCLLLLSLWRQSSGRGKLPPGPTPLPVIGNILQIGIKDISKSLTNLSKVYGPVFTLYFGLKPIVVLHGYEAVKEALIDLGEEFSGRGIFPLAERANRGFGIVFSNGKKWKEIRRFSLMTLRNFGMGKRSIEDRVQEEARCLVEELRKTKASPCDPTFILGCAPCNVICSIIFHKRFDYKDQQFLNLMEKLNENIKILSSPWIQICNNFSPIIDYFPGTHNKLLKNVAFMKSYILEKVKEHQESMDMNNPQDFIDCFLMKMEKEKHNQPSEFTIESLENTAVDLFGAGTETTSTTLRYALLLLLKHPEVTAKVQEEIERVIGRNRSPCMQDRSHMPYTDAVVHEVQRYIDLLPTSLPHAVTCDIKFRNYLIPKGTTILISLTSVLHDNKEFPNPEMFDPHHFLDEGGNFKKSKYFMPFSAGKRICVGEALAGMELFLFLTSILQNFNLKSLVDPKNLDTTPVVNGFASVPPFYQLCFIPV", "assay": "Inhibition of CYP2C9 (unknown origin)", "type": "ADME"}, "[17]": {"assay": "Clearance in rat blood relative to hepatic blood flow", "type": "ADME, tissue-based"}, "[18]": {"assay": "In vivo modulation of gamma secretase in nonhuman primate assessed as reduction in Abeta42 levels in CSF at 30 mg/kg, po measured after 12 hrs by ELISA relative to control", "type": "functional, Primates, Cerebrospinal fluid", "design": "scale not given: the % may be the effect or the level left"}, "[19]": {"assay": "Toxicity in rat assessed as effect on arterial pressures by telemetry", "settings": "in vivo"}, "[20]": {"assay": "Clearance in dog blood relative to hepatic blood flow", "type": "ADME, tissue-based, Canis lupus familiaris"}, "[21]": {"target": "T1, Cytochrome P450 3A4", "assay": "Inhibition of CYP3A4 in human hepatocytes upto 50 uM incubated for 72 hrs", "type": "ADME, cell-based, Hepatocyte"}, "[22]": {"test_system": "Rattus norvegicus", "assay": "In vivo modulation of gamma secretase in rat assessed as reduction in Abeta37 levels in CSF by measuring AUC(0 to 24 hrs) at 30 mg/kg, po by ELISA", "type": "functional, Cerebrospinal fluid", "design": "scale not given: the % may be the effect or the level left"}, "[23]": {"target": "Gamma-secretase", "assay": "Inhibition of gamma secretase (unknown origin) assessed as reduction in notch cleavage", "type": "functional, Homo sapiens"}, "[24]": {"assay": "Cmax in rat at 3 mg/kg, po", "type": "ADME, organism-based", "design": "route oral, dose 3 mg/kg", "settings": "in vivo"}, "[25]": {"assay": "AUClast in dog at 10 mg/kg, po", "type": "ADME, organism-based, Canis lupus familiaris", "design": "route oral, time 0 - last, dose 10 mg/kg", "settings": "in vivo"}, "[26]": {"assay": "Volume of distribution at steady state in nonhuman primate at 1 mg/kg, iv", "type": "ADME, organism-based", "settings": "primates, in vivo, read-out: Vdss"}, "[27]": {"assay": "Bioavailability in dog at 0.5 mg/kg, iv", "type": "ADME, organism-based, Canis lupus familiaris", "settings": "in vivo"}, "[28]": {"assay": "Toxicity in rat assessed as effect on cardiac output by telemetry", "settings": "in vivo"}, "[29]": {"assay": "Toxicity in guinea pig assessed as effect on sino-atrial node function in heart by Langendorff test", "type": "tissue-based, Cavia porcellus", "settings": "in vivo"}, "[30]": {"target": "Sodium-dependent serotonin transporter (Homo sapiens) (UniProt P31645)", "sequence (P31645 whole entry, looked up)": "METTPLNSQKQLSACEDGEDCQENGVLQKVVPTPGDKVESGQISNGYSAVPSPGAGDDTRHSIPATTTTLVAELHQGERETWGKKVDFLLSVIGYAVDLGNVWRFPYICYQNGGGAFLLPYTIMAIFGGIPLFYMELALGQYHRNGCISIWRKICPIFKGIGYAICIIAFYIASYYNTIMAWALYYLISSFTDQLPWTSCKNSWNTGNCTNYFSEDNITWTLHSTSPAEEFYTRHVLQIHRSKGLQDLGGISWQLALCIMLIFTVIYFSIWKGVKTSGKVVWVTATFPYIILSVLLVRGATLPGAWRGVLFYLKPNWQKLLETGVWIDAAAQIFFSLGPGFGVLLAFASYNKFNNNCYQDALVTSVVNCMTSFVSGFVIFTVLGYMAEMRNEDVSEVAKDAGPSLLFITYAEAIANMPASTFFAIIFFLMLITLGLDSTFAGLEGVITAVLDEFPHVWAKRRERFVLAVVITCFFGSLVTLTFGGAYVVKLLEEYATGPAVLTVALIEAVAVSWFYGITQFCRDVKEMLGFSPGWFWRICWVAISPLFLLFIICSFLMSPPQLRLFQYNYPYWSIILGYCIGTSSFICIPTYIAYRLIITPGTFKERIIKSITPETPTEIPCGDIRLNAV", "assay": "Inhibition of serotonin transporter (unknown origin) at 10 uM relative to control"}, "[31]": {"test_system": "Rattus norvegicus", "assay": "In vivo modulation of gamma secretase in rat assessed as reduction in Abeta40 levels in brain at 30 mg/kg, po measured at 16 hrs by ELISA relative to control", "type": "functional", "design": "scale not given: the % may be the effect or the level left"}, "[32]": {"assay": "Toxicity in guinea pig assessed as effect on repolarization in heart by Langendorff test", "type": "tissue-based, Cavia porcellus", "settings": "in vivo"}, "[33]": {"test_system": "Rattus norvegicus", "assay": "In vivo modulation of gamma secretase in rat assessed as reduction in Abeta42 levels in CSF at 30 mg/kg, po measured at 9 hrs by ELISA relative to control", "type": "functional, Cerebrospinal fluid", "design": "scale not given: the % may be the effect or the level left"}, "[34]": {"assay": "Clearance in dog at 0.5 mg/kg, iv", "type": "ADME, organism-based, Canis lupus familiaris", "settings": "in vivo"}, "[35]": {"test_system": "Rattus norvegicus", "assay": "In vivo modulation of gamma secretase in rat assessed as reduction in Abeta42 levels in brain at 30 mg/kg, po measured after 6 hrs by ELISA relative to control", "type": "functional", "design": "scale not given: the % may be the effect or the level left"}, "[36]": {"assay": "Volume of distribution at steady state in rat at 1 mg/kg, iv", "type": "ADME, organism-based", "settings": "in vivo, read-out: Vdss"}, "[37]": {"test_system": "Rattus norvegicus", "assay": "In vivo modulation of gamma secretase in rat assessed as reduction in Abeta37 levels in brain by measuring AUC(0 to 24 hrs) at 30 mg/kg, po by ELISA", "type": "functional", "design": "scale not given: the % may be the effect or the level left"}, "[38]": {"assay": "Bioavailability in nonhuman primate at 1 mg/kg, iv", "type": "ADME, organism-based", "settings": "primates, in vivo"}, "[39]": {"target": "Vasopressin V1a receptor (Homo sapiens) (UniProt P37288)", "sequence (P37288 whole entry, looked up)": "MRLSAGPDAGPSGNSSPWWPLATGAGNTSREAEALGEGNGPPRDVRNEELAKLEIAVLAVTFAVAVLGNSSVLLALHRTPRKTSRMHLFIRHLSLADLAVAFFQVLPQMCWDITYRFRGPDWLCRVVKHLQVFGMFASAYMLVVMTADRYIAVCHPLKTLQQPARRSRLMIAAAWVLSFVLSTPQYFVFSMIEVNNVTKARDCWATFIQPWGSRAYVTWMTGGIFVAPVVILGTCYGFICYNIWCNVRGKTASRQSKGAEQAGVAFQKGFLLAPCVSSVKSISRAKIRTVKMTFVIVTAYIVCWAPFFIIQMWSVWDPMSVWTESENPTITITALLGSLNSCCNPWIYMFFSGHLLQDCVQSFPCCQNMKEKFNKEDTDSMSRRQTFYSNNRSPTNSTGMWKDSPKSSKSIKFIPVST", "assay": "Inhibition of vasopressin 1A receptor (unknown origin) at 10 uM relative to control"}, "[40]": {"test_system": "Rattus norvegicus", "assay": "In vivo modulation of gamma secretase in rat assessed as reduction in Abeta40 levels in CSF by measuring AUC(0 to 24 hrs) at 30 mg/kg, po by ELISA", "type": "functional, Cerebrospinal fluid", "design": "scale not given: the % may be the effect or the level left"}}, "note": "pIC50: −log10 of the molar value."}
{"compound": "COc1nc(C2=NOC(C3CC3)C(c3ccc(Cl)cc3)N2)ccc1-n1cnc(C)c1", "note": "(stereo not given)", "values": [{"measurement": "Activity", "setting": "[1]", "result": "Non-Toxic"}, {"measurement": "Activity", "setting": "[2]", "result": 50, "unit": "%"}, {"measurement": "pIC50", "setting": "[3]", "result": 5.04}, {"measurement": "Cmax", "setting": "[4]", "result": 4030, "unit": "nM"}, {"measurement": "pIC50", "setting": "[5]", "result": "≤ 4.85"}, {"measurement": "Papp A→B", "setting": "[6]", "result": 6.6, "unit": "×10⁻⁶ cm/s"}, {"measurement": "inhibition", "setting": "[7]", "result": "> 50", "unit": "%"}, {"measurement": "bioavailability", "setting": "[8]", "result": 86, "unit": "%"}, {"measurement": "inhibition (INH)", "setting": "[9]", "result": "Not Active"}, {"measurement": "Activity", "setting": "[10]", "result": 63, "unit": "%"}, {"measurement": "Activity", "setting": "[11]", "result": 88, "unit": "%"}, {"measurement": "Drug metabolism", "setting": "[12]", "result": "Metabolite_Detected"}, {"measurement": "AUC(0-t)", "setting": "[13]", "result": 11.6, "unit": "µM·h"}, {"measurement": "Activity", "setting": "[14]", "result": "Non-Toxic"}, {"measurement": "Activity", "setting": "[15]", "result": 25, "unit": "%"}, {"measurement": "pIC50", "setting": "[16]", "result": "≤ 4.85"}, {"measurement": "CL", "setting": "[17]", "result": "< 20", "unit": "%"}, {"measurement": "Activity", "setting": "[18]", "result": 92, "unit": "%"}, {"measurement": "Activity", "setting": "[19]", "result": "Non-Toxic"}, {"measurement": "CL", "setting": "[20]", "result": "< 20", "unit": "%"}, {"measurement": "inhibition (INH)", "setting": "[21]", "result": "Not Active"}, {"measurement": "Activity", "setting": "[22]", "result": 380, "unit": "%"}, {"measurement": "pIC50", "setting": "[23]", "result": "< 5.00"}, {"measurement": "Cmax", "setting": "[24]", "result": 754, "unit": "nM"}, {"measurement": "AUC(0-t)", "setting": "[25]", "result": 32.9, "unit": "µM·h"}, {"measurement": "Vd", "setting": "[26]", "result": 1.2, "unit": "L/kg"}, {"measurement": "bioavailability", "setting": "[27]", "result": 66, "unit": "%"}, {"measurement": "Activity", "setting": "[28]", "result": "Non-Toxic"}, {"measurement": "Activity", "setting": "[29]", "result": "Non-Toxic"}, {"measurement": "inhibition", "setting": "[30]", "result": "> 50", "unit": "%"}, {"measurement": "Activity", "setting": "[31]", "result": 36, "unit": "%"}, {"measurement": "Activity", "setting": "[32]", "result": "Non-Toxic"}, {"measurement": "Activity", "setting": "[33]", "result": 91, "unit": "%"}, {"measurement": "clearance", "setting": "[34]", "result": 3.4, "unit": "mL/min/kg"}, {"measurement": "Activity", "setting": "[35]", "result": 56, "unit": "%"}, {"measurement": "Vd", "setting": "[36]", "result": 2.4, "unit": "L/kg"}, {"measurement": "Activity", "setting": "[37]", "result": 88, "unit": "%"}, {"measurement": "bioavailability", "setting": "[38]", "result": 113, "unit": "%"}, {"measurement": "inhibition", "setting": "[39]", "result": "> 50", "unit": "%"}, {"measurement": "Activity", "setting": "[40]", "result": 48, "unit": "%"}]}
